{"source": "patent US5985261A", "about": "“Use of thioredoxin-like molecules for induction of MnSOD to treat oxidative damage” (National Jewish Medical and Research Center, priority 1997, dated 1999)", "test_system": "MnSOD mRNA in A549 cells", "assay": "Effect on MnSOD mRNA induction by thioredoxin in A549 cells (Northern blot)", "format": "cell-based, human", "method": "Reduced thioredoxin (recombinant, E. coli; Promega) was prepared by treating 1 mM thioredoxin with 2 mM dithiothreitol (DTT) for 20 min at room temperature followed by removal of excess DTT using a G-25 spin column. A549 cells were grown in F-12K medium with 10% serum. Confluent monolayers were treated with oxidized thioredoxin (3 or 7 μM), with and without the thioredoxin reducing system [thioredoxin reductase (0.1 μM)+NADPH (2 mM)]. Incubations were for 16 hours. Total RNA was isolated from cells by guanidine isothiocyanate lysis and cesium chloride centrifugation of the lysate (147,000× g, 20-25° C.) in an ultracentrifuge (Beckman) by the methods of Sambrook et al., ibid. Total RNA was quantified spectrophotometrically.\nTwenty micrograms of RNA was resolved by electrophoresis in 1% agarose, 2.5 M formaldehyde gel in a buffer containing 20 mM MOPS and 1 mM EDTA (pH 7.4). RNA was transferred to nitrocellulose and blots were prehybridized 2-12 hours in 50% formamide, 0.75 M sodium chloride, 0.075 M sodium citrate (pH 7.0), 5× Denhardt's solution, 50 μg/ml salmon sperm DNA, and 0.1% SDS at 42° C. Blots were hybridized with cDNA for MnSOD labeled to a specific activity of 2-7×10^7 cpm using ^32 P-γ CTP (ICN) in hybridization solution at 42° C. overnight and then were washed in 0.3 M sodium chloride, 0.03 M sodium citrate, 0.1% SDS at 42° C. Autoradiographs were made by exposing blots to x-ray film (Kodak) at -70° C. with intensifying screens. Blots were exposed to phosphor-imager screens (Molecular Dynamics) and densitometry was performed with a Macintosh computer using MD Image Quant Version 3.35.\nTo evaluate the effect of oxidation of TRX-SH2 on MnSOD induction, A549 cells were incubated with diamide (2 mM; 30 min) or CDNB (100 μM; 45 min). After incubation, cells were washed and fresh medium added. The cells next were incubated with oxidized thioredoxin (28 μM; 6 h) and then processed for Northern analysis as described in Example 2.\nA549 cells were incubated with actinomycin D ([…]), a transcriptional inhibitor, or cyclohexamide (10 μg/ml), a translation inhibitor, for 1 hour followed by addition of thioredoxin (28 μM) and further incubation for a period of 16 hours. mRNA was quantified as previously described.", "note": "Starred links: 1 amine or outer side, 2 acyl side, 3 side chain; linkers in the order of their positions; H or OH if unused. Positions of bridges follow the written chain, without caps; N, C: chain ends. Non-standard residues stand in square brackets, D forms with d. Residues, ends and D or L forms follow the SMILES beside them. Chains are numbered I, II in the order given. Actinocin(9to1) = Cc1c2oc3c(C)ccc(C(=O)[*:1])c3nc-2c(C(=O)[*:2])c(N)c1=O; NMeV = CN[C@H](C(=O)O)C(C)C; Sar = CNCC(=O)O", "data": [{"smiles": "Cc1c2oc3c(C)ccc(C(=O)N[C@@H]4C(=O)N[C@H](C(C)C)C(=O)N5CCC[C@H]5C(=O)N(C)CC(=O)N(C)[C@@H](C(C)C)C(=O)O[C@@H]4C)c3nc-2c(C(=O)N[C@@H]2C(=O)N[C@H](C(C)C)C(=O)N3CCC[C@H]3C(=O)N(C)CC(=O)N(C)[C@@H](C(C)C)C(=O)O[C@@H]2C)c(N)c1=O", "note": "[actinomycin D] (I: T[dV]P[Sar][NMeV] / II: T[dV]P[Sar][NMeV]; ester I:1-I:C, II:1-II:C; linker I:N-II:N via Actinocin(9to1))", "values": [{"measurement": "effect on production of MnSOD mRNA", "setting": "actinomycin D, 1 hour, then thioredoxin 28 μM, 16 hours", "result": "inhibited"}]}, {"smiles": "CN(C)C(=O)/N=N/C(=O)N(C)C", "note": "[diamide]", "values": [{"measurement": "effect on elevation of MnSOD mRNA by thioredoxin", "setting": "diamide 2 mM, 30 min, washed, then oxidized thioredoxin 28 μM, 6 h", "result": "prevented elevation of MnSOD mRNA by thioredoxin"}]}, {"smiles": "O=[N+]([O-])c1ccc(Cl)c([N+](=O)[O-])c1", "note": "[CDNB]", "values": [{"measurement": "effect on increased expression of MnSOD mRNA by thioredoxin", "setting": "CDNB 100 μM, 45 min, washed, then oxidized thioredoxin 28 μM, 6 h", "result": "prevented increased expression of MnSOD mRNA by thioredoxin"}]}, {"smiles": "C[C@@H]1C[C@@H]([C@H](O)CC2CC(=O)NC(=O)C2)C(=O)[C@@H](C)C1", "note": "[Cycloheximide, cycloheximide]", "values": [{"measurement": "effect on thioredoxin-mediated increase in MnSOD mRNA", "setting": "cyclohexamide 10 μg/ml, 1 hour, then thioredoxin 28 μM, 16 hours", "result": "potentiated the thioredoxin-mediated increase in MnSOD mRNA"}]}]}
